According to ChEMBL document CHEMBL1141804, “Cytotoxic sesquiterpene lactones from Vernonia pachyclada from the Madagascar rainforest” (J Nat Prod, 2005):
*1 amine or outer side, *2 acyl side, *3 side chain or, on linkers, in order; H or OH if unused. Where a SMILES comes first, the peptide text is derived from it. Bridges are numbered along the chain shown (N, C = ends). Roman numbers before positions name the chains, in order. [ ]: non-standard residue; d: D form. Actinocin(1to9) = Cc1c2oc3c(C)ccc(C(=O)[*:2])c3nc-2c(C(=O)[*:1])c(N)c1=O; NMeV = CN[C@H](C(=O)O)C(C)C; Sar = CNCC(=O)O

These compounds were tested on A2780 (assay: Cytotoxicity against human A2780 cells).
Type: functional, cell-based

| SMILES | IC50 [µM] |
| --- | --- |
| Cc1c2oc3c(C)ccc(C(=O)N[C@@H]4C(=O)N[C@H](C(C)C)C(=O)N5CCC[C@H]5C(=O)N(C)CC(=O)N(C)[C@@H](C(C)C)C(=O)O[C@@H]4C)c3nc-2c(C(=O)N[C@@H]2C(=O)N[C@H](C(C)C)C(=O)N3CCC[C@H]3C(=O)N(C)CC(=O)N(C)[C@@H](C(C)C)C(=O)O[C@@H]2C)c(N)c1=O [DACTINOMYCIN] (I: T[dV]P[Sar][NMeV] / II: T[dV]P[Sar][NMeV]; ester I:1-I:C, II:1-II:C; linker I:N-II:N via Actinocin(1to9)) | 0.0008 |
| C=C(C)C(=O)O[C@H]1C[C@H](C)[C@@H](OC(C)=O)CC[C@@]2(C)O[C@@H]2[C@H]2OC(=O)C(COC(C)=O)=C12 [GLAUCOLIDE K] | 5.8 |
| C=C(C)C(=O)O[C@H]1C[C@H](C)[C@@H](OC(C)=O)CC[C@@]2(C)O[C@@H]2[C@H]2OC(=O)C(CO)=C12 [GLAUCOLIDE L] | 24.5 |
| C=C(C)C(=O)O[C@H]1C[C@H](C)[C@@H](OC(C)=O)CC[C@@](C)(O)/C=C2/OC(=O)C(COC(C)=O)=C21 [GLAUCOLIDE M] | 3.3 |
